Test results reported in patent US7517949B2, “Livin-derived peptides, compositions and uses thereof” (Hadasit Medical Research Services & Development Ltd., priority 2003, dated 2009).

What was measured:
Format in all cases: cell-based, human
LB33 Mel B1 cells = experiment: Etoposide-induced apoptosis, nuclear morphology, LB33 Mel B1; settings: Mel B1, high levels of Livin; etoposide 15 μg/ml
Protocol: (§1) (b) Melanoma cell lines LB33 Mel A1 and B1 were treated with etoposide (15 μg/ml). Apoptosis rate was determined by nuclear morphology, as described.
(§2) Nuclear morphology was visualized using acridin orange (Sigma) staining as described [Loo, D. T. et al. (1998) Methods Cell Biol., 57: 251-264]. […] The percentage of apoptotic to viable cells was counted by fluorescence microscopy and 500 cells were scored for each sample. Flow cytometry analysis of the apoptotic cells was done using two different methods. In the Sub-G1 assay the cells were harvested, washed with PBS and fixed using 100% methanol. […] Cells transfected with a GFP-containing plasmid were analyzed using Annexin-V-Cy5 and PI staining according to the manufacturer instructions (MBL, Japan). In stably transfected cultures with a rate of GFP-positive cells higher than 95%, all cells were analyzed for apoptosis. In transiently transfected cells, GFP expression was first analyzed (FL-1), and only GFP-positive cells were analyzed for Annexin-V-Cy5 (FL-4) and PI (FL-3) staining.
(§3) LB33 A1 and B1 are two metastatic melanoma cell lines derived from the same patient before and after vaccination with autologous melanoma cells [Ikeda, H. et al. (1997) Immunity 6: 199-208; Lehmann, F. et al. (1995) Eur. J. Immunol. […] PARP was detected in all samples, confirming similar protein content.

LB33 Mel A1 cells = experiment: Etoposide-induced apoptosis, nuclear morphology, LB33 Mel A1; settings: Mel A1, no Livin expression; etoposide 15 μg/ml
Protocol: as §1, §2, §3

primary melanoma cells = experiment: Etoposide-induced apoptosis in primary melanoma cultures (nuclear morphology); settings: etoposide 15 μg/ml, 24 and 48 hours
Protocol: FIG. 8b: Six samples were selected according to the level of Livin expression (high: 5556, 55112, moderate: 5524, 55164, or undetectable: 5530, 5533). […] Apoptosis rate was determined by nuclear morphology, as described. The data shown are representative of three independent experiments, which were also confirmed by flow cytometry, using sub-G1 assay.
Primary melanoma cells were derived and maintained as described [Lotem, M. et al. (2002) Br J Cancer, 86: 1534-1539].
Nuclear morphology was visualized using acridin orange (Sigma) staining as described [Loo, D. T. et al. (1998) Methods Cell Biol., 57: 251-264]. […] The percentage of apoptotic to viable cells was counted by fluorescence microscopy and 500 cells were scored for each sample. Flow cytometry analysis of the apoptotic cells was done using two different methods. In the Sub-G1 assay the cells were harvested, washed with PBS and fixed using 100% methanol. Following an overnight incubation at −20° C., cells were re-hydrated with PBS for 30 minutes on ice, and then resuspended in PBS with RNase A (50 μg/ml) and stained with Propidium Iodide (PI) (Sigma) at a final concentration of 5 μg/ml. Flow cytometry analysis was performed in FL2 histogram. Cells transfected with a GFP-containing plasmid were analyzed using Annexin-V-Cy5 and PI staining according to the manufacturer instructions (MBL, Japan). In stably transfected cultures with a rate of GFP-positive cells higher than 95%, all cells were analyzed for apoptosis. In transiently transfected cells, GFP expression was first analyzed (FL-1), and only GFP-positive cells were analyzed for Annexin-V-Cy5 (FL-4) and PI (FL-3) staining.
In order to determine whether Livin expression renders the melanoma cells resistant to chemotherapy, six melanoma samples were selected, according to their Livin expression. […] After 24 and 48 hours, cells were harvested and the percent of apoptosis determined in each sample by nuclear morphology (FIG. 8b). […]

COc1cc([C@@H]2c3cc4c(cc3[C@@H](O[C@@H]3O[C@@H]5CO[C@@H](C)O[C@H]5[C@H](O)[C@H]3O)[C@H]3COC(=O)[C@H]23)OCO4)cc(OC)c1O [etoposide]
response to etoposide (apoptosis by nuclear morphology) (LB33 Mel B1 cells): completely resistant | response to etoposide (apoptosis by nuclear morphology) (LB33 Mel A1 cells): rapidly underwent apoptosis | moderate resistance (percent of apoptosis) (primary melanoma cells; samples 5524 and 55164, intermediate Livin): 15-25% | apoptosis rate (primary melanoma cells; samples 5533 and 5530, no Livin expression): up to 55% | resistance to etoposide (primary melanoma cells; samples 5556 and 55112, high Livin expression): completely resistant
